Oligonucleotides are written 5' to 3', each unit as a sugar letter and its base; * is a phosphorothioate linkage, no mark a phosphodiester; rarer units and linkages stand in square brackets, end groups in braces. Plain capitals give the bases only. e = 2'-O-(2-methoxyethyl) (MOE); [5mC] = 5-methylcytosine; d = 2'-deoxy (DNA)
What was measured:
Type in all cases: cell-based
Human STAT3 mRNA [1] = assay: Human STAT3 mRNA dose response in T-24 cells, real-time PCR with PPS 199 (Table 18); conditions: 16 hours, − decrease, + increase relative to untreated control
Source text: The transitional cell bladder carcinoma cell line T-24 was obtained from the American Type Culture Collection (ATCC) (Manassas, Va.). T-24 cells were routinely cultured in complete McCoy's 5A basal media (Gibco/Life Technologies, Gaithersburg, Md.) supplemented with 10% fetal calf serum (Gibco/Life Technologies, Gaithersburg, Md.), penicillin 100 units per mL, and streptomycin 100 micrograms per mL (Gibco/Life Technologies, Gaithersburg, Md.). Cells were routinely passaged by trypsinization and dilution when they reached 90% confluence. Cells were seeded into 96-well plates (Falcon-Primaria #3872) at a density of 7000 cells/well for use in RT-PCR analysis.
Control oligonucleotides used were ISIS 129695 ([…], SEQ ID NO: 391), ISIS 129694 ([…] SEQ ID NO: 392), ISIS 129690 ([…] SEQ ID NO: 393), ISIS 129686 ([…] SEQ ID NO: 394), ISIS 116847 ([…], SEQ ID NO: 395) and ISIS 113529 ([…] SEQ ID NO: 396). These are universal scrambled control oligonucleotides.
(§1) T-24 cells were treated with 18.75, 37.5, 75, or 150 nM of oligonucleotide mixed with 3 ug/mL LIPOFECTIN per 100 nM oligonucleotide as described by other examples herein. Untreated cells served as controls. Following 16 hours of treatment, RNA was prepared from cells for subsequent real-time PCR analysis.
Human STAT3 mRNA expression levels were quantitated by real-time PCR using primer probe set PPS 199 and gene target quantities were normalized using Ribogreen as described in other examples herein. A “−” or “+” designation indicates a decrease or increase of STAT 3 mRNA expression, respectively, relative to untreated control cells.

Human STAT3 mRNA [2] = assay: Human STAT3 mRNA dose response in T-24 cells, real-time PCR with PPS 2033 (Table 19); conditions: 16 hours, − decrease, + increase relative to untreated control
Procedure: The dose-response was repeated in T-24 cells and gene target quantities were measured using a different primer-probe set, called PPS 2033 herein. PPS 2033 comprises probes and primers to human STAT3 were designed to hybridize to a human STAT3 sequence, using published sequence information (incorporated herein as SEQ ID NO: XXX). For PPS 2033 the PCR primers were: forward primer: GAGGCCCGCCCAACA (SEQ ID NO: 397) reverse primer: […] (SEQ ID NO: 398) and the PCR probe was: FAM-CTGCCTAGATCGGC-TAMRA (SEQ ID NO: 399) where FAM is the fluorescent reporter dye and TAMRA is the quencher dye. Gene target quantities obtained by real time RT-PCR are normalized by quantifying total RNA using RiboGreen™ (Molecular Probes, Inc. Eugene, Oreg.). Control oligonucleotides used were ISIS 129695 (SEQ ID NO: 391), ISIS 129694 (SEQ ID NO: 392), ISIS 129690 (SEQ ID NO: 393), ISIS 129686 (SEQ ID NO: 394), ISIS 116847 (SEQ ID NO: 395) and ISIS 113529 (SEQ ID NO: 396).
as §1
Human STAT3 mRNA expression levels were quantitated by real-time PCR using primer probe set PPS 2033 and gene target quantities were normalized using Ribogreen as described in other examples herein. A “−” or “+” designation indicates a decrease or increase of STAT 3 mRNA expression, respectively, relative to untreated control cells.

Human STAT3 mRNA [3] = assay: Inhibition of human STAT3 mRNA levels in A549 cells, 75 nM, real-time PCR (Table 13); conditions: 75 nM oligonucleotide with LIPOFECTIN, real-time PCR PPS 199, percent inhibition relative to untreated control cells, average of 2 experiments
How it was run: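 A549 cells at 65–75% confluency were transfected in duplicate with 75 nM oligonucleotide plus […] Lipofectin for 4–7 h at 37° C and harvested 16–24 h later. STAT3 mRNA was quantified by real-time RT-PCR with primer-probe set PPS 199 and normalized to RiboGreen total RNA. Inhibition is relative to untreated controls.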

| Substance | Percent change of STAT3 expression using PPS 199 (Human STAT3 mRNA [1]; 18.75 nM oligonucleotide) | Percent change of STAT3 expression using PPS 199 (Human STAT3 mRNA [1]; 37.5 nM oligonucleotide) | Percent change of STAT3 expression using PPS 199 (Human STAT3 mRNA [1]; 75 nM oligonucleotide) | Percent change of STAT3 expression using PPS 199 (Human STAT3 mRNA [1]; 150 nM oligonucleotide) | Percent change of STAT3 expression using PPS 2033 (Human STAT3 mRNA [2]; 18.75 nM oligonucleotide) | Percent change of STAT3 expression using PPS 2033 (Human STAT3 mRNA [2]; 37.5 nM oligonucleotide) | Percent change of STAT3 expression using PPS 2033 (Human STAT3 mRNA [2]; 75 nM oligonucleotide) | Percent change of STAT3 expression using PPS 2033 (Human STAT3 mRNA [2]; 150 nM oligonucleotide) | % Inhib (inhibition of human STAT 3 mRNA levels) (Human STAT3 mRNA [3]) |
| --- | --- | --- | --- | --- | --- | --- | --- | --- | --- |
| 129694 (antisense GTACAGTTATGCGCGGTAGA; all phosphorothioate, sugars by position and methylation of C not given here; 2'-MOE wings with deoxy gap) [compound 129694] | +4% | −3% | −4% | −10% | +19% | −1% | +7% | +2% |  |
| 337247 (antisense eT*eT*eT*eT*eG*d[5mC]*dA*dT*dG*dA*dT*dG*dT*dA*dA*e[5mC]*e[5mC]*eA*e[5mC]*eT) [compound 337247] | −23% | −43% | −62% | −75% | +17% | −21% | −53% | −69% | 87% |
| 337293 (antisense e[5mC]*eA*eG*e[5mC]*e[5mC]*dA*dG*d[5mC]*dT*d[5mC]*d[5mC]*dT*d[5mC]*dG*dT*e[5mC]*e[5mC]*eG*eT*eG) [compound 337293] | −26% | −49% | −66% | −79% | −26% | −49% | −67% | −79% | 92% |
| 337303 (antisense eA*eG*e[5mC]*eT*eG*dA*dT*dA*dA*dT*dT*d[5mC]*dA*dA*d[5mC]*eT*e[5mC]*eA*eG*eG) [compound 337303] | −44% | −61% | −69% | −72% | −47% | −59% | −69% | −71% | 85% |
| 129695 (antisense TTCTACCTCGCGCGATTTAC; all phosphorothioate, sugars by position and methylation of C not given here; 2'-MOE wings with deoxy gap) [compound 129695] | +5% | +2% | +8% | 0% | −4% | +2% | +8% | +3% |  |
| 337344 (antisense eA*eT*e[5mC]*e[5mC]*eA*dT*dG*dA*dT*d[5mC]*dT*dT*dA*dT*dA*eG*e[5mC]*e[5mC]*e[5mC]*eA) [compound 337344] | −27% | −47% | −63% | −77% | −17% | −37% | −60% | −76% | 90% |
| 337284 (antisense e[5mC]*eT*e[5mC]*e[5mC]*eT*dT*dG*dA*d[5mC]*dT*d[5mC]*dT*dT*dG*dA*eG*eG*eG*eT*eT) [compound 337284] | −49% | −64% | −69% | −72% | −49% | −62% | −66% | −68% | 91% |
| 337384 (antisense eA*eT*eA*e[5mC]*eA*dG*dA*dA*dA*dG*dG*d[5mC]*dT*dA*dT*eG*e[5mC]*eT*eG*eA) [compound 337384] | −40% | −55% | −71% | −80% | −41% | −59% | −69% | −80% | 89% |
| 113529 (antisense CTCTTACTGTGCTGTGGACA; all phosphorothioate, sugars by position and methylation of C not given here; 2'-MOE wings and deoxy gap) [compound 113529] | +1% | −1% | −11% | −26% | +1% | +12% | −11% | −24% |  |
| 337276 (antisense e[5mC]*eT*eG*eG*eA*dG*dA*dT*dT*d[5mC]*dT*d[5mC]*dT*dA*d[5mC]*e[5mC]*eA*e[5mC]*eT*eT) [compound 337276] | −40% | −61% | −76% | −81% | −34% | −58% | −75% | −81% | 91% |
| 106747 (GCCCATGATGATTTCAGCAA; all C 5-methyl, all phosphorothioate, sugars by position not given here; further chemistry not fully specified) [compound 106747] | −37% | −48% | −71% | −84% | −32% | −48% | −62% | −76% |  |
| 337270 (antisense eT*eT*eG*eG*e[5mC]*dT*dT*d[5mC]*dT*d[5mC]*dA*dA*dG*dA*dT*eA*e[5mC]*e[5mC]*eT*eG) [compound 337270] | −29% | −41% | −67% | −87% | −16% | −27% | −67% | −87% | 89% |

Reference: patent US20050074879A1, “Antisense oligonucleotide modulation of STAT3 expression” (priority 2000, published 2005)
